In patent publication US20230105108A1, “COMPOUNDS FOR THE TREATMENT OF BACTERIAL INFECTIONS AND POTENTIATION OF ANTIBIOTICS” (GEORGIA STATE UNIVERSITY RESEARCH FOUNDATION, INC., priority 2019, published 2023):
Counter-ions that a name gives are not always drawn. Like-named read-outs stand apart in the source and are kept apart here.

How the values were obtained:
[1] = Cytotoxicity in H9c2 cells (CCK-8); assay type: cell-based; settings: rat, H9c2 cells; for CC50 at 24 h: H9c2 cell line
Method: The cytotoxicity in H9c2 (ATCC®CRL-1446™) cells was also determined. The H9c2 cells were maintained in DMEM (Dulbecco's Modified Eagle's Medium) supplemented with 10% fetal bovine serum (MidSci; S01520HI) and 1% penicillin-streptomycin (Sigma-Aldrich; P4333) at 37° C. with 5% CO2. The H9c2 cells were seeded in 96-well plate one day before the experiment. Different concentrations of di-amidine compounds were added into the H9c2 cells. The cells were then incubated with the compounds for 24 hours at 37° C. with 5% CO2. The cell viability was tested by the CCK-8. Specifically, after 24 hour incubation, 10 μL CCK-8 was added to each well. After 3 hours incubation at 37° C., the absorbance at 450 nm was recorded by a plate reader.

[2] = tested on: E. coli; experiment: Sensitization of E. coli (sensitization fold), Example 2; assay type: cell-based
Method: The sensitization fold of select compounds of the present invention was determined. E. coli bacteria were cultured in nutrient broth at 37° C. overnight prior to treatment. […] Bacterial density was measured based on OD600.

[3] = tested on: M. smegmatis; experiment: MIC on mycobacteria; assay type: cell-based, Mycobacterium smegmatis; settings: Mycolicibacterium smegmatis, read-out: MIC on mycobacteria
[4] = tested on: E. coli (ATCC 25922); experiment: MIC determination, sensitization fold and FIC index on E. coli; assay type: cell-based; settings: for MIC: Escherichia coli, ATCC25922, 24 h
Method: (§1) Bacteria culture and MICs determination: Gram-negative bacteria were cultured in Mueller Hinton II cation-adjusted broth. Gram-positive bacteria were cultured in LB broth. Mycobacterium smegmatis was cultured in Middlebrook 7H9 Broth. MICs of antibiotics itself were determined by performing two-fold serial dilutions of antibiotics. MICs of antibiotics in the presence of bacterial sensitizers were determined by performing two-fold serial dilutions of antibiotics with or without a constant concentration of bacterial sensitizers. The MICs tests were performed on 96-well plates with a final volume of 200 μl Mueller Hinton II cation-adjusted broth in each well. Each well was inoculated with 5×10^5 CFU/ml bacteria and was incubated for 24 h at 37° C. with continuous shaking of 200 rpm. The bacterial density was then determined by OD600. Bacterial growth %=OD600 of antibiotic treatment group/OD600 of antibiotic non-treatment group. MICs was determined as the concentrations that inhibit more than 90% of bacteria growth.
(§2) Sensitization fold determination and FIC index calculations: Sensitization fold=MIC of antibiotic only/MIC of antibiotic with bacterial sensitizer. […] Since the MICs were determined by performing two-fold serial dilutions of antibiotic, so the sensitization fold can is the times of 2.
FIC index between compound a and b was calculated according to the formula below: […]
FIC≤0.5: Synergy; FIC between 0.5 and 1: Additive; FIC between 1 and […]: no interaction; FIC >4: antagonism.
(§3) Bacteria strains (as indicated in Table 5B) were cultured with rifampicin at various concentrations in the presence or absence of 10 μM of the indicated compound for 20 h at 37° C. The MIC, sensitization, cytotoxicity, and MIC on mycobacteria were tested according to methods described herein. […] The sensitization activities of compounds on MRSA were tested using rifampicin. The sensitization activities of compounds on E. coli were tested using rifampicin.

[5] = tested on: B. subtilis; experiment: MIC determination and sensitization fold on B. subtilis; assay type: cell-based; settings: B. subtilis; for Sensitization fold: erythromycin; for MIC: Bacillus subtilis, 24 h, compound alone, read-out: MIC
[6] = Cytotoxicity on mammalian cells (CCK-8), NIH3T3; assay type: cell-based; settings: mouse, NIH3T3 cells, 3T3 cell line
Method: (§4) Cytotoxicity test of bacterial sensitizers on mammalian cells. Cell viability was assessed by using Cell Counting Kit-8 (CCK-8, Dojindo, Japan). HEK293 or NIH3T3 cells were seeded in a 96-well plate one day before the experiment to reach 80% confluency. Cells were then incubated with various concentration of bacterial sensitizers at 37° C. with 5% CO2 for 24 h, then 10 μL of CCK-8 solution was added to each well, and the plate was incubated for an additional at 37° C. 2 h with 5% CO2. The optical density at 450 nm was recorded by plate reader; and the results were calculated as a percentage of viability compared with the untreated control.

[7] = Cytotoxicity on mammalian cells (CCK-8), HEK293; assay type: cell-based; settings: human, HEK293 cells; HEK293 cell line; 24 h
Method: as §4

[8] = tested on: HEK293 cells; experiment: Cytotoxicity on mammalian cells (CCK-8), HEK293; assay type: cell-based; settings: Homo sapiens
Method: as §4

[9] = tested on: MRSA (ATCC 33592); experiment: MIC determination and sensitization fold on MRSA; assay type: cell-based, methicillin-resistant Staphylococcus aureus; settings: Staphylococcus aureus, 24 h
Method: Bacteria strains: E. coli (ATCC 25922), A. baumannii (ATCC 17978), K. pneumoniae (43816), S. maltophilia (ATCC 31559), S. typhimurium (ATCC 14028), C. werkmanii (ATCC 51114), S. aureus (ATCC 12600) and methicillin-resistant Staphylococcus aureus (MRSA, ATCC 33592) strains were purchased from ATCC. NR698 was provided.
as §1, §2, §3

[10] = 10 μM compound, rifampicin as the antibiotic (Table 6)
[11] = E. coli, rifampicin, compound at 10 μM
[12] = E. coli, rifampicin, compound at 12.5 μM

SMILES	MIC [3] [µM]	CC50 at 24 h [1] [µM]	MIC [4] [µM]	MIC [5] [µM]	CC50 at 24 h [6] [µM]	CC50 at 24 h [7] [µM]	Sensitization fold ([5]; compound at 6 μM)	Sensitization fold [4, 10] [fold]	further results
N=C(N)c1ccc(-c2ccc(-c3ccc(C(=N)N)cc3)[se]2)cc1 [Compound R]	–	–	–	–	–	–	–	–	IC50 at 24 h [1]: > 100 µM; Sensitization ability: fold sensitization of E. coli towards rifampicin ([2]; compound at 25 μM): At 25 μM, sensitize E. coli towards rifampicin for 32-fold;
N=C(N)c1ccc(-c2ccc(-c3ccc(-c4ccc(C(=N)N)cc4)o3)o2)cc1 [Compound T]	–	–	–	–	–	–	–	–	IC50 at 24 h ([1]; H9c2 cells (ATCC CRL-1446)): > 100 µM; Sensitization ability: fold sensitization of E. coli towards rifampicin ([2]; compound at 25 μM): At 25 μM, sensitize E. coli towards rifampicin for 32-fold;
N=C(N)c1ccc(-c2ccc3[nH]cc(-c4nc5ccc(C(=N)N)cc5[nH]4)c3c2)cc1 [Compound U, 3-(5-Amidinobenzimidazol-2-yl)-5-(4-amidinophenyl)indole acetate salt]	–	–	–	–	–	–	–	–	IC50 at 24 h ([1]; H9c2 cells (ATCC CRL-1446)): 100 µM; Sensitization ability: fold sensitization of E. coli towards rifampicin ([2]; compound at 10 μM): At 10 μM, sensitize E. coli towards rifampicin for 32-fold;
N=C(N)c1ccc(OCc2cccc(COc3ccc(C(=N)N)cc3)c2F)cc1 [DB2573, 1,3-Bis{(4-amidino)-phenoxymethyl}-2-fluorobenzene dihydrochloride]	12	50	25	25	–	–	–	–	Sensitization fold ([4]; E. coli, rifampicin, compound at 12 μM): 32-fold at 12 μM; Sensitization fold ([5]; compound at 12 μM): 4-fold at 12 μM
N=C(N)c1ccc(OCc2ccc(COc3ccc(C(=N)N)cc3)cc2)cc1 [MD-101, 1,4-Bis [(4-amidino)-phenoxymethyl]benzene dihydrochloride]	3 to 6	50	100	25	> 100	> 100	4-fold at 6 μM,	–	Sensitization ([4]; E. coli, rifampicin, compound up to 25 μM): No effect up to 25 μM; Sensitization fold ([5]; compound at 3 μM): 2-fold at 3 μM.
CC(C)(C)c1cc(COc2ccc(C(=N)N)cc2)cc(COc2ccc(C(=N)N)cc2)c1 [MD-105, 4,4′-(((5-(tert-butyl)-1,3-phenylene)bis(methylene))bis(oxy))dibenzimidamide dihydrochloride]	6	25	25	–	–	–	–	16	Sensitization fold [4, 11]: 16-fold at 10 μM.; IC50 ([8]; HEK293): 25 to 50 µM
N=C(N)c1ccc(OCc2cc(COc3ccc(C(=N)N)cc3)cc(COc3ccc(C(=N)N)cc3)c2)cc1 [MD-107, 4,4′,4″-((benzene-1,3,5-triyltris(methylene))tris(oxy))tribenzimidamide trihydrochloride]	3 to 6	> 100	50	12.5	> 100	> 100	8-fold at 6 μM	–	Sensitization fold [4, 12]: 4-fold at 12.5 μM; Sensitization fold ([4]; E. coli, rifampicin, compound at 25 μM): 8-fold at 25 μM
CC(C)(C)c1cc(COc2ccc(C(=N)N)cc2F)cc(COc2ccc(C(=N)N)cc2F)c1 [MD-115, 4,4′-(((5-(tert-butyl)-1,3-phenylene)bis(methylene))bis(oxy))bis(3-fluorobenzimidamide) dihydrochloride]	–	25	–	–	25 to 50	25 to 50	8-fold at 6 μM	256	Sensitization fold [4, 11]: 256-fold at 10 μM; IC50 ([8]; HEK293): 25 to 50 µM; MIC [9]: 25 µM
Cc1cc(CSc2ccc(C(=N)N)cc2)cc(CSc2ccc(C(=N)N)cc2)c1 [MD-117, 4,4′-(((5-methyl-1,3-phenylene)bis(methylene))bis(sulfanediyl)) dibenzimidamide dihydrochloride]	–	–	–	25	25 to 50	25 to 50	32-fold at 6 μM	32	Sensitization fold ([4]; E. coli, rifampicin, compound at 6 μM): 8-fold at 6 μM.; Sensitization fold [4, 12]: 32-fold at 12.5 μM; MIC ([4]; E. coli, compound alone, read-out: MIC): 50 µM; IC50 ([8]; HEK293 cells (Table 6), read-out: IC50): 25 to 50 µM; Sensitization fold ([5]; compound at 3 μM): 8-fold at 3 μM.; MIC ([9]; MRSA, compound alone, read-out: MIC): 12.5 µM
